“Also recorded” adds a separate entry of the source.
What was measured:
α7* nAChR = α7* nAChR (Rattus norvegicus, UniProt Q05941); assay: Radioligand binding assay, α7* nAChR
α3β4* nAChR [1] = assay: Radioligand binding assay, α3β4* nAChR
(α1)2β1γδ nAChR = (α1)2β1γδ nAChR (Tetronarce californica, UniProt P02710+P02714+P02718); assay: Radioligand binding assay, muscle type
α4β2* nAChR [2] = biological target: α4β2* nAChR (Homo sapiens, UniProt P17787+P43681); assay: Electrophysiology, α4β2* nAChR expressed in Xenopus oocytes; type: cell-based; settings: 1 or 10 μM; co-applied at 1 μM with ACh; relative to ACh control
α3β4* nAChR [3] = biological target: α3β4* nAChR (Homo sapiens, UniProt P30926+P32297); assay: Electrophysiology, α3β4* nAChR expressed in Xenopus oocytes; type: cell-based; settings: 1 or 10 μM; co-applied at 1 μM with ACh; relative to ACh control
α4β2* nAChR [4] = biological target: α4β2* nAChR (Rattus norvegicus, UniProt P09483+P12390); assay: Radioligand binding assay, α4β2* nAChR
mouse model = settings: ref [26]; cited from earlier work
muscle subtype nAChR = muscle subtype nAChR (Homo sapiens, UniProt P02708+Q07001); assay: Electrophysiology, muscle subtype nAChR expressed in Xenopus oocytes; type: cell-based; settings: 1 or 10 μM; co-applied at 1 μM with ACh; relative to ACh control
[5] = relative to vinyl spacer analog 26

Sequence of α4β2* nAChR (Homo sapiens, UniProt P17787+P43681) (P43681 29-627 limits assumed): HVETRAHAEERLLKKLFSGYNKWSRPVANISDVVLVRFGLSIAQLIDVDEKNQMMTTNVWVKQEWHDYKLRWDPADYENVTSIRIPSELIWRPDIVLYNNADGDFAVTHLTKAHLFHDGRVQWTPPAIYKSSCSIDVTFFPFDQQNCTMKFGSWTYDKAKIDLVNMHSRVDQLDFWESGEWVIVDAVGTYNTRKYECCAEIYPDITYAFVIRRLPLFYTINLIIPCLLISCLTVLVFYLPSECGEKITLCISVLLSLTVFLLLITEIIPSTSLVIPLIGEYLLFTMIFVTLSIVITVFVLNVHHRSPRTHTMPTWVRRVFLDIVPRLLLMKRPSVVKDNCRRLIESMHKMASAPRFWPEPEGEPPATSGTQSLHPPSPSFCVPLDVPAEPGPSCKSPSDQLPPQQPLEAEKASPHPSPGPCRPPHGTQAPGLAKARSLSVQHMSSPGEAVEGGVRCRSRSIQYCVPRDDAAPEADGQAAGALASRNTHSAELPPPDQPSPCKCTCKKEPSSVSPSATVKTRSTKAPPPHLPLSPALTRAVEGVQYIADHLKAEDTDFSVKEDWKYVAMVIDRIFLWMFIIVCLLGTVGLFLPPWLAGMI
Sequence of α4β2* nAChR (Homo sapiens, UniProt P17787+P43681) (P17787 26-502): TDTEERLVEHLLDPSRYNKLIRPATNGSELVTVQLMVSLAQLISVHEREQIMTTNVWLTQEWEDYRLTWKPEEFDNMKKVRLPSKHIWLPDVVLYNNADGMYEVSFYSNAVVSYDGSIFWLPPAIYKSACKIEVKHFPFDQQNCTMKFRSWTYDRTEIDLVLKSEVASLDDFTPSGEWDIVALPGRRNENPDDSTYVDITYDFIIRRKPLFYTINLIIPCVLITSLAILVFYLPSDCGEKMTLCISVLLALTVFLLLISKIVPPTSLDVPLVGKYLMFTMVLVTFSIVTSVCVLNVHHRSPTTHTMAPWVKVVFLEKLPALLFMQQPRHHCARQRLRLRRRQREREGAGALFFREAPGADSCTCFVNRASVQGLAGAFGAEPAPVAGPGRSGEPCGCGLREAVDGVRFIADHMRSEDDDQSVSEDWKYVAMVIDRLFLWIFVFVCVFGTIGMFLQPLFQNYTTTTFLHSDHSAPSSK
Sequence of α4β2* nAChR (Rattus norvegicus, UniProt P09483+P12390) (P09483 31-630): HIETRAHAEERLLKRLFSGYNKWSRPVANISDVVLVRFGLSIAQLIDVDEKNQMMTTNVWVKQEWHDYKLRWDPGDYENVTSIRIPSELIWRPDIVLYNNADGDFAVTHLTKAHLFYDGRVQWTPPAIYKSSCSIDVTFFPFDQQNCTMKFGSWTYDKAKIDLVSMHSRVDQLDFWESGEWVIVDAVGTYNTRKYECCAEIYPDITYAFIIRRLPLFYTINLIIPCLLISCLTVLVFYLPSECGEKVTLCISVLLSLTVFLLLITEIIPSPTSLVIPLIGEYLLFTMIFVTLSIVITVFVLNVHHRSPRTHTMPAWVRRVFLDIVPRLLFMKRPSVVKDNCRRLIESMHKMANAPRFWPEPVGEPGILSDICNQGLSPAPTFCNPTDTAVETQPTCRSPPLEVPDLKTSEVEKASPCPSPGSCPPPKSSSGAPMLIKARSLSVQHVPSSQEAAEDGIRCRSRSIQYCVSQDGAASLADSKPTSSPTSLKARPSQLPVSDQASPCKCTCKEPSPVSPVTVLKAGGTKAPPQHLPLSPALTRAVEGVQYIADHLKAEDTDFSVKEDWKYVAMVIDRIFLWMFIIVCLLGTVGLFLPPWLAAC
Sequence of α4β2* nAChR (Rattus norvegicus, UniProt P09483+P12390) (P12390 25-500): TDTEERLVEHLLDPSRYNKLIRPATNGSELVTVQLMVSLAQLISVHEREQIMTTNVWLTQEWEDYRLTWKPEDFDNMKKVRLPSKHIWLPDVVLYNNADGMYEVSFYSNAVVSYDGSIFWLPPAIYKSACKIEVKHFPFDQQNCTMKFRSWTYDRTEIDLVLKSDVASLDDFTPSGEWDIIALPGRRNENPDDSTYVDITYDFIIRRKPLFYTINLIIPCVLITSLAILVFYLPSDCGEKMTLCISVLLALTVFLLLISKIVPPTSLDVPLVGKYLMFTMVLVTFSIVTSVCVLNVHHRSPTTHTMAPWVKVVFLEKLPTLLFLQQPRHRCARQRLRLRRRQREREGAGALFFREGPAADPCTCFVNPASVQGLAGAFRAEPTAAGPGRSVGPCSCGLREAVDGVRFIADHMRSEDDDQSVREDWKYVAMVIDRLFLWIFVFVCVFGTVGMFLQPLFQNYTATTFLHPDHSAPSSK
Sequence of α7* nAChR (Q05941 23-502): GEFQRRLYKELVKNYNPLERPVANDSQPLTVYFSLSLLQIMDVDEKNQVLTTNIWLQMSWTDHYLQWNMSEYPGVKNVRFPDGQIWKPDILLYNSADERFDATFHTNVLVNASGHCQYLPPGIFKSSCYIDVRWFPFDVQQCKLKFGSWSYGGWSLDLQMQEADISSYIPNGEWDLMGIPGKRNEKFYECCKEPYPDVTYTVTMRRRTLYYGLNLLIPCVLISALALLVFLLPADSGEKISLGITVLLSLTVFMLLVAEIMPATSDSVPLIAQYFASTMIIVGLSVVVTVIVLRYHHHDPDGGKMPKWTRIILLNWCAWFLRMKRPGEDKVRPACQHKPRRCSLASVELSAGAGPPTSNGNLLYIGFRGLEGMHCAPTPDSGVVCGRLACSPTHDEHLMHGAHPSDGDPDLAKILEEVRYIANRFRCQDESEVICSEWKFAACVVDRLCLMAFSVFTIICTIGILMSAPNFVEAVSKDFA
Sequence of α3β4* nAChR (Homo sapiens, UniProt P30926+P32297) (P32297 32-505): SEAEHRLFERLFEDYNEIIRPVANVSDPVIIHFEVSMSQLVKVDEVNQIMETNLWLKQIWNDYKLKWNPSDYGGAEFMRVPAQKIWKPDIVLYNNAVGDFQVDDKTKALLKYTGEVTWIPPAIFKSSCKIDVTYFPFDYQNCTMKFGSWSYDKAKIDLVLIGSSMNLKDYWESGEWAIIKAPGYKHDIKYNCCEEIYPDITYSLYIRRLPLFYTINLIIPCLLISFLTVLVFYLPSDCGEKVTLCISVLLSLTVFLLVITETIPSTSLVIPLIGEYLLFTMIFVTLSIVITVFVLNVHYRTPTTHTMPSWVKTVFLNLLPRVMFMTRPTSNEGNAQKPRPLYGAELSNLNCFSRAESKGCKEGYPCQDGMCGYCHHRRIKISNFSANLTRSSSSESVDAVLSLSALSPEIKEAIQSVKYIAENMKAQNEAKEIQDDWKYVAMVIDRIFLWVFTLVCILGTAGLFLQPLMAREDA
Sequence of α3β4* nAChR (Homo sapiens, UniProt P30926+P32297) (P30926 22-498): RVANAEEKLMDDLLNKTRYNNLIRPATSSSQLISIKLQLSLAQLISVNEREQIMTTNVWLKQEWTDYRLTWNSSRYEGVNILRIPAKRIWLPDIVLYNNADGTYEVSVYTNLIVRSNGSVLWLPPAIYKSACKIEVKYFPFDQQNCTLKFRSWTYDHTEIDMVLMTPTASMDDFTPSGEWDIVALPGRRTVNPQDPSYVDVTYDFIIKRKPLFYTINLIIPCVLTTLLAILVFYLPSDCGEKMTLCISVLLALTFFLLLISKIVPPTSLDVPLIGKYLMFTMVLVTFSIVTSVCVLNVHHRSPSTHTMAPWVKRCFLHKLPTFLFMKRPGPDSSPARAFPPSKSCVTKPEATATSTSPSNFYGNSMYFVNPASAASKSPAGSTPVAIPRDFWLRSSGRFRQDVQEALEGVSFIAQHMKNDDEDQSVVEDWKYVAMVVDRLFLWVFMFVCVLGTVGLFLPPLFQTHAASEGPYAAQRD
Sequence of muscle subtype nAChR (P02708 21-457): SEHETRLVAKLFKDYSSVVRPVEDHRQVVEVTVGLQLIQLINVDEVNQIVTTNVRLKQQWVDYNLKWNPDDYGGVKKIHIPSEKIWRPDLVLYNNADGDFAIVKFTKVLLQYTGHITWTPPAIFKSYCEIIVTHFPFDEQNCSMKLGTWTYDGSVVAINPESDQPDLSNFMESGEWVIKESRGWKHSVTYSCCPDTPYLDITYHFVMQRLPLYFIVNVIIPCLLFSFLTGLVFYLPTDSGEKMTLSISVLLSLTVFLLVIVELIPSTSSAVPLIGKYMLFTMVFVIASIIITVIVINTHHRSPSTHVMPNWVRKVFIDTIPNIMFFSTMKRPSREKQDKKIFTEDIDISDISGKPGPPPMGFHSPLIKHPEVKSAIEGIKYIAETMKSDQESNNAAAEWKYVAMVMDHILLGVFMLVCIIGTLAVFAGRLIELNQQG
Sequence of muscle subtype nAChR (P11230 24-501 partner): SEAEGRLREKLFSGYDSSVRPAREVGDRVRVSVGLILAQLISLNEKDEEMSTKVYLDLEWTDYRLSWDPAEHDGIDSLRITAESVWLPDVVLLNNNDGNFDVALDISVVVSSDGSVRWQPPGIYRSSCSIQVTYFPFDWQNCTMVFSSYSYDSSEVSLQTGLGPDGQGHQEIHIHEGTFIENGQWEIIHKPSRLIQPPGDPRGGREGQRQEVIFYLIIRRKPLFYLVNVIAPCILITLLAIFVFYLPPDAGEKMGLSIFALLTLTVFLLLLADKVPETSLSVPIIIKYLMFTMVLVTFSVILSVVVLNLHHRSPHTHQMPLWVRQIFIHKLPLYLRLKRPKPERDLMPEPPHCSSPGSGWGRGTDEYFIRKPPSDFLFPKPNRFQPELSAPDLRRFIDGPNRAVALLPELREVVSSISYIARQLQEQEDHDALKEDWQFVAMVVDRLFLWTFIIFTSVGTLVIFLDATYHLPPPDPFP
Sequence of muscle subtype nAChR (Q07001 22-517): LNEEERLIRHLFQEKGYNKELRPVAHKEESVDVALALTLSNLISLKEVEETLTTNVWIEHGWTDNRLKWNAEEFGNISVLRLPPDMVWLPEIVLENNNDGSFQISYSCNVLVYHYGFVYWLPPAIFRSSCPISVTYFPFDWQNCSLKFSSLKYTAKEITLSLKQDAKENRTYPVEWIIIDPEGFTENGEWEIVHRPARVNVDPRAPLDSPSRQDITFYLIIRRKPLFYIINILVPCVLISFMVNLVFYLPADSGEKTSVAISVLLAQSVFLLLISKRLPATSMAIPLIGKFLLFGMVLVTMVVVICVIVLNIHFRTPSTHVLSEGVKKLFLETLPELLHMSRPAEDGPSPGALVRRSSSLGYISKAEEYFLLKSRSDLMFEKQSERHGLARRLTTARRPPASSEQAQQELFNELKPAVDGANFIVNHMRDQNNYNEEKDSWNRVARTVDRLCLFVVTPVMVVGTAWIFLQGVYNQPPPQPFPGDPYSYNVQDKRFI

O=C(/C=C/c1ccccc1)N1C[C@@H]2CNC[C@@H](C2)C1 [Compound 16, (E)-1-((1R,5S)-3,7-diazabicyclo[3.3.1]nonan-3-yl)-3-phenylprop-2-en-1-one]
affinity for α7* nAChR, in words (α7* nAChR): lacked affinity | affinity for α3β4* nAChR, in words (α3β4* nAChR [1]): lacked affinity | affinity for (α1)2β1γδ nAChR, in words ((α1)2β1γδ nAChR): lacked affinity

O=C(c1ccc(-n2ccnc2)cc1)N1C[C@@H]2CNC[C@@H](C2)C1 [Compound 54, (4-(1H-imidazol-1-yl)phenyl)((1R,5S)-3,7-diazabicyclo[3.3.1]nonan-3-yl)methanone]
functional effect at α4β2* (α4β2* nAChR [2]): strongest antagonistic effects

O=C([C@@H]1C[C@H]1c1ccccc1)N1C[C@@H]2CNC[C@@H](C2)C1 [Compound 15, (1R,5S)-3,7-diazabicyclo[3.3.1]nonan-3-yl((1R,2R)-2-phenylcyclopropyl)methanone]
functional effect at α3β4* (α3β4* nAChR [3]): agonist; also recorded: most potent agonist | Ki (α4β2* nAChR [4]): ~1 nM | functional effect at α4β2* (α4β2* nAChR [2]): strongest antagonistic effects

CS(=O)(=O)c1ccc(CC(=O)N2C[C@@H]3CNC[C@@H](C3)C2)cc1 [Compound 35, 1-((1R,5S)-3,7-diazabicyclo[3.3.1]nonan-3-yl)-2-(4-(methylsulfonyl)phenyl)ethanone]
in vivo activity in a mouse model (mouse model): antidepressive effect | functional effect at α4β2* (α4β2* nAChR [2]): strongest antagonistic effects

O=C(Cc1c(F)c(F)c(F)c(F)c1F)N1C[C@@H]2CNC[C@@H](C2)C1 [Compound 34, 1-((1R,5S)-3,7-diazabicyclo[3.3.1]nonan-3-yl)-2-(2,3,4,5,6-pentafluorophenyl)ethanone]
affinity for α4β2* / nAChRs tested, in words (α4β2* nAChR [4]): failed to interact

O=C(c1ccc(-c2ccncc2)cc1)N1C[C@@H]2CNC[C@@H](C2)C1 [Compound 53, (1R,5S)-3,7-diazabicyclo[3.3.1]nonan-3-yl(4-(pyridin-4-yl)phenyl)methanone]
functional effect at α4β2* (α4β2* nAChR [2]): strongest antagonistic effects

COc1ccc(C#CC(=O)N2C[C@@H]3CNC[C@@H](C3)C2)cc1Cl [Compound 47, 1-((1R,5S)-3,7-diazabicyclo[3.3.1]nonan-3-yl)-3-(3-chloro-4-methoxyphenyl)prop-2-yn-1-one]
functional effect at α4β2* (α4β2* nAChR [2]): strongest antagonistic effects

O=C(Cc1ccccc1)N1C[C@@H]2CNC[C@@H](C2)C1 [Compound 30, 1-((1R,5S)-3,7-diazabicyclo[3.3.1]nonan-3-yl)-2-phenylethanone]
increase of α4β2* affinity (α4β2* nAChR [4]; relative to compound 29): about 8 fold

O=C(C#Cc1ccc2c(c1)OCO2)N1C[C@@H]2CNC[C@@H](C2)C1 [Compound 50, 1-((1R,5S)-3,7-diazabicyclo[3.3.1]nonan-3-yl)-3-(benzo[d][1,3]dioxol-5-yl)prop-2-yn-1-one]
higher affinity for α4β2* (α4β2* nAChR [4]; [5]): ~10 fold | functional effect at α4β2* (α4β2* nAChR [2]): strongest antagonistic effects

COc1ccc(C#CC(=O)N2C[C@@H]3CNC[C@@H](C3)C2)cc1OC [Compound 46, 1-((1R,5S)-3,7-diazabicyclo[3.3.1]nonan-3-yl)-3-(3,4-dimethoxyphenyl)prop-2-yn-1-one]
higher affinity for α4β2* (α4β2* nAChR [4]; [5]): ~10 fold | functional effect at muscle subtype (muscle subtype nAChR): some antagonistic effect | functional effect at α4β2* (α4β2* nAChR [2]): strongest antagonistic effects

O=c1c(-c2ccccc2)ccc2n1C[C@@H]1CNC[C@H]2C1 [Compound 4, 9-phenyl-1,2,3,4,5,6-hexahydro-1,5-methano-pyridino[1,2-a]diazocin-8-one]
α4β2* affinity lower than cytisine 1 (α4β2* nAChR [4]; relative to cytisine 1): about 1000 times

O=C(c1csc(-c2ccncc2)n1)N1C[C@@H]2CNC[C@@H](C2)C1 [Compound 55, (1R,5S)-3,7-diazabicyclo[3.3.1]nonan-3-yl(2-(pyridine-4-yl)thiazol-4-yl)methanone]
affinity for α4β2* / nAChRs tested, in words (α4β2* nAChR [4]): did not show any affinity

O=C(C#Cc1ccccc1)N1C[C@@H]2CNC[C@@H](C2)C1 [Compound 42]
higher affinity for α4β2* (α4β2* nAChR [4]; relative to analogs 32 and 16): 5 times

O=C(c1ccc(-c2cccnc2)cc1)N1C[C@@H]2CNC[C@@H](C2)C1 [Compound 52, (1R,5S)-3,7-diazabicyclo[3.3.1]nonan-3-yl(4-(pyridin-3-yl)phenyl)methanone]
functional effect at α4β2* (α4β2* nAChR [2]): strongest antagonistic effects

O=C(CCc1ccccc1)N1C[C@@H]2CNC[C@@H](C2)C1 [Compound 32, 1-((1R,5S)-3,7-diazabicyclo[3.3.1]nonan-3-yl)-3-phenylpropan-1-one]
affinity for α7* nAChR, in words (α7* nAChR): no affinity
